ChEMBL document CHEMBL1136937, “Discovery of a potent class I selective ketone histone deacetylase inhibitor with antitumor activity in vivo and optimized pharmacokinetic properties” (J Med Chem, 2009)

Columns and labels:
[1] = Metabolic stability in rat liver microsomes assessed as intrinsic clearance at 1 uM after 90 mins; format: ADME, Microsome
[2] = test system: HeLa; test: Antiproliferative activity against human P53-deficient HeLa cells after 72 hrs by celltiter-blue cell viability assay; format: functional
[3] = Metabolic stability in dog liver microsomes assessed as intrinsic clearance at 1 uM after 90 mins; format: ADME, Canis lupus familiaris, Microsome; settings: liver microsomes
[4] = Metabolic stability in human liver microsomes assessed as intrinsic clearance at 1 uM after 90 mins; format: ADME, Microsome; settings: liver microsomes
[5] = target: Histone deacetylase 1 (Homo sapiens, UniProt Q13547)
Description: Inhibition of human C-terminal FLAG-tagged HDAC1 in HEK293 cells

[6] = Clearance in Sprague-Dawley rat plasma at 3 mg/kg, iv and 3 mg/kg, po; format: ADME, organism-based
[7] = test system: HCT-116; test: Antiproliferative activity against human P53 expressing HCT116 cells after 72 hrs by celltiter-blue cell viability assay; format: functional; settings: Homo sapiens, HCT-116, 72 h
[8] = test system: G-401; test: Antiproliferative activity against human G401 cells after 72 hrs by celltiter-blue cell viability assay; format: functional; settings: Homo sapiens, G-401, 72 h
[9] = test system: A549; test: Antiproliferative activity against human P53 expressing A549 cells after 72 hrs by celltiter-blue cell viability assay; format: functional; settings: A549, 72 h
[10] = test system: A2780; test: Antiproliferative activity against human A2780 cells after 72 hrs by celltiter-blue cell viability assay; format: functional; settings: A2780, 72 h

Chain of Histone deacetylase 1 (Q13547 whole entry): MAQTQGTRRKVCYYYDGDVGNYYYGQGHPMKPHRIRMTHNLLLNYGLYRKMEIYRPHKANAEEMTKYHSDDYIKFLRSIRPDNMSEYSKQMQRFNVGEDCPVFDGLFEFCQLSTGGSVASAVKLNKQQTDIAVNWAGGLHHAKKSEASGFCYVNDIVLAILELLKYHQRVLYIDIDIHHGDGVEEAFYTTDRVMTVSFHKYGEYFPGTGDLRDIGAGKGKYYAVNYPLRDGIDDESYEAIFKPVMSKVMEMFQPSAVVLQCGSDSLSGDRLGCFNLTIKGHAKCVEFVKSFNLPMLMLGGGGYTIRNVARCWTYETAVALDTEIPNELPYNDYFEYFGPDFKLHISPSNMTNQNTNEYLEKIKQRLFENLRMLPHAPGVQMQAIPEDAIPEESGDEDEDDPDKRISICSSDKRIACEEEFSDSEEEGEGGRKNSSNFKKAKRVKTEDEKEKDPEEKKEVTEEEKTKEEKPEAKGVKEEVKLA

| Structure (SMILES) | microsomal CLint at 1 µM [1] [µL/min/mg] | CC50 [2] [nM] | microsomal CLint at 1 µM [3] [µL/min/mg] | microsomal CLint at 1 µM [4] [µL/min/mg] | IC50 [5] [nM] | clearance [6] [mL/min/kg] | CC50 [7] [nM] | CC50 [8] [nM] | CC50 [9] [nM] | CC50 [10] [nM] |
| --- | --- | --- | --- | --- | --- | --- | --- | --- | --- | --- |
| CCC(=O)CCCCC[C@H](NC(=O)C1CN(C)C1)c1ncc(-c2cc3ccccc3nc2F)[nH]1 | 34 | 190 | 28 | 18 | 8 | – | – | – | – | – |
| CCC(=O)CCCCC[C@H](NC(=O)C1CN(C)C1)c1ncc(-c2cc(OC)c3ccccc3n2)[nH]1 | 15 | 970 | 9 | 16 | 162 | 20 | – | – | – | – |
| CCC(=O)CCCCC[C@H](NC(=O)C1CCN(C)CC1)c1ncc(-c2ccc3ncccc3c2)[nH]1 | 98 | 200 | 23 | 12 | 2 | – | – | – | – | – |
| CCC(=O)CCCCC[C@H](NC(=O)C1CCN(C)CC1)c1ncc(-c2cc(OC)c3ccccc3n2)[nH]1 | 36 | 770 | 5 | 10 | 30 | 36 | – | – | – | – |
| CCC(=O)CCCCC[C@H](NC(=O)C1CCN(C)CC1)c1ncc(-c2cnc3ccccc3c2)[nH]1 | 510 | 250 | 24 | 49 | 4 | – | – | – | – | – |
| CCC(=O)CCCCC[C@H](NC(=O)C1CN(C)C1)c1ncc(-c2ccc3nccnc3c2)[nH]1 | 13 | 1200 | 3 | < 1 | 39 | – | – | – | – | – |
| CCC(=O)CCCCC[C@H](NC(=O)C1CCN(C)CC1)c1ncc(-c2cc3ccccc3cn2)[nH]1 | 210 | 22 | 18 | 29 | 8 | – | – | – | – | – |
| Nc1ccccc1NC(=O)c1ccc(CNC(=O)OCc2cccnc2)cc1 [ENTINOSTAT] | – | 1800 | – | – | – | – | 700 | 1300 | 1200 | 3000 |
